Our source for the EC50 values is patent US9663473B2 (Actelion Pharmaceuticals Ltd, priority 2013, dated 2017).

Counter-ions that a name gives are not always drawn.

The target of this assay is T1, recombinant human ALX receptor (Homo sapiens, UniProt P25090).
T1 construct: expressed in transfected cells; host or cells: HEK293 (HEK293-hALXR-Gα16)
T1 sequence (P25090 1-351): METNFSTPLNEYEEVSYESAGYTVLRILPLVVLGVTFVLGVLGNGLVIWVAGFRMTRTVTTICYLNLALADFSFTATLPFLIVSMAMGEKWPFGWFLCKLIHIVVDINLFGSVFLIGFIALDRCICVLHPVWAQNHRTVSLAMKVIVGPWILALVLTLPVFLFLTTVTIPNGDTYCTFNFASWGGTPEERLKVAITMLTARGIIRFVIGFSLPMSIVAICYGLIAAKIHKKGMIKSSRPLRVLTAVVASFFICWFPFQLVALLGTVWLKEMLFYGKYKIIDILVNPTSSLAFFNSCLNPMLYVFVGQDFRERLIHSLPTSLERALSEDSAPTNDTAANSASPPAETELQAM
As to the kind of experiment: Intracellular calcium measurements (FLIPR), ALX receptor agonistic activity. To be noted: HEK293-hALXR-Gα16 cells, Fluo-4 calcium signal, normalized to WKYMVm 10 nM. Type of assay: cell-based. An outline of the steps:
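HEK293 cells co-expressing human ALX receptor and Gα16 were loaded with 1 μM Fluo-4 AM for 60 min at 37° C., then exposed to serially diluted compounds on FLIPR Tetra. Peak fluorescence above baseline (ex 488/em 540 nm) was normalized to 10 nM WKYMVm as high control.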
In the case of `COc1ccc(C[C@@H](NC(=O)NC[C@H]2CCCC[C@@H]2O)c2nc3ccccc3[nH]2)cc1` (relative stereo) [Example 103, 1-((R)-1-(1H-Benzo[d]imidazol-2-yl)-2-(4-methoxyphenyl)ethyl)-3-(((1R*,2S*)-2-hydroxycyclohexyl)methyl)urea], the EC50 stood at 0.309 µM. Under `COc1ccc(C[C@@H](NC(=O)NCCc2ccc(F)cc2)c2nc3ccccc3[nH]2)cc1` [Example 55, (R)-1-(1-(1H-Benzo[d]imidazol-2-yl)-2-(4-methoxyphenyl)ethyl)-3-(4-fluorophenethyl)urea hydrochloride] stands 0.137 µM; under `O=C(NC(Cc1ccc(C(F)(F)F)cc1F)c1nc2ccccc2[nH]1)N[C@H]1CC[C@H](O)CC1` (relative stereo) [Example 240, 1-(1-(1H-Benzo[d]imidazol-2-yl)-2-(2-fluoro-4-(trifluoromethyl)phenyl)ethyl)-3-(trans-4-hydroxycyclohexyl)urea], 0.012 µM; under `O=C(N[C@H](Cc1ccc(Br)cc1)c1nc2ccc(Cl)cc2[nH]1)NC12CCC(O)(CC1)CC2` [Example 194, (R)-1-(2-(4-Bromophenyl)-1-(6-chloro-1H-benzo[d]imidazol-2-yl)ethyl)-3-(4-hydroxybicyclo[2.2.2]octan-1-yl)urea], 0.0019 µM.

In the case of `COc1ccc(C[C@@H](NC(=O)N[C@H]2CCCNC2)c2nc3ccccc3[nH]2)cc1` [Example 132, 1-((R)-1-(1H-Benzo[d]imidazol-2-yl)-2-(4-methoxyphenyl)ethyl)-3-((S)-piperidin-3-yl)urea], the EC50 is 0.023 µM. Turning to `COc1ccc(C[C@@H](NC(=O)N[C@@H]2CCCC[C@H]2C(N)=O)c2nc3ccccc3[nH]2)cc1` (relative stereo) [Example 163, (1R*,2R*)-2-(3-((R)-1-(1H-Benzo[d]imidazol-2-yl)-2-(4-methoxyphenyl)ethyl)ureido)cyclohexanecarboxamide], the EC50 worked out at 0.12 µM. With `COc1ccc(C[C@@H](NC(=O)N[C@H]2CCN(C(=O)OC(C)(C)C)C2)c2nc3ccccc3[nH]2)cc1` [Example 119, (S)-tert-Butyl 3-(3-((R)-1-(1H-benzo[d]imidazol-2-yl)-2-(4-methoxyphenyl)ethyl)ureido)pyrrolidine-1-carboxylate], the concentration for a half-maximal effect (EC50) came out at 0.539 µM. Regarding `COc1ccc(C[C@@H](NC(=O)NC(CCO)c2ccccc2)c2nc3ccccc3[nH]2)cc1` (stereo partly drawn) [Example 343, 1-((R)-1-(1H-Benzo[d]imidazol-2-yl)-2-(4-methoxyphenyl)ethyl)-3-(3-hydroxy-1-phenylpropyl)urea], the EC50 was found to be 0.04 µM. Under `COc1ccc(C[C@@H](NC(=O)NCCC(N)=O)c2nc3ccccc3[nH]2)cc1` [Example 110, (R)-3-(3-(1-(1H-Benzo[d]imidazol-2-yl)-2-(4-methoxyphenyl)ethyl)ureido)propanamide] stands 0.746 µM. As to `COc1ccc(CC(NC(=O)N[C@H]2CC[C@H](O)CC2)c2nc3ccccc3[nH]2)c(F)c1F` (single isomer, unassigned; ent-1) [Example 365, 1-(1-(1H-Benzo[d]imidazol-2-yl)-2-(2,3-difluoro-4-methoxyphenyl)ethyl)-3-(trans-4-hydroxycyclohexyl)urea (ent-1)], the EC50 came out at 0.0017 µM. In the case of `COc1ccc(C[C@@H](NC(=O)N[C@@H]2CCNC[C@@H]2F)c2nc3ccccc3[nH]2)cc1` (relative stereo) [Example 164, 1-((R)-1-(1H-Benzo[d]imidazol-2-yl)-2-(4-methoxyphenyl)ethyl)-3-((3S*,4R*)-3-fluoropiperidin-4-yl)urea], the EC50 worked out at 0.025 µM. Regarding `COc1ccc(C[C@@H](NC(=O)Nc2cccc(OC)c2)c2nc3ccccc3[nH]2)cc1` [Example 177, (R)-1-(1-(1H-Benzo[d]imidazol-2-yl)-2-(4-methoxyphenyl)ethyl)-3-(3-methoxyphenyl)urea], the EC50 turned out to be 0.247 µM. Next, `COc1ccc(CNC(=O)N[C@H](Cc2ccc(OC)cc2)c2nc3ccccc3[nH]2)cc1` [Example 387, (R)-1-(1-(1H-Benzo[d]imidazol-2-yl)-2-(4-methoxyphenyl)ethyl)-3-(4-methoxybenzyl)urea]: 1.37 µM; `COc1ccc(C[C@@H](NC(=O)NC2CCN(C3CCCCC3)CC2)c2nc3ccccc3[nH]2)cc1` [Example 90, (R)-1-(1-(1H-Benzo[d]imidazol-2-yl)-2-(4-methoxyphenyl)ethyl)-3-(1-cyclohexylpiperidin-4-yl)urea]: 0.023 µM. As to `COc1ccc(CC(NC(=O)NCc2cc(C3CC3)on2)c2nc3ccccc3[nH]2)cc1` (stereo not drawn) [Example 380, 1-(1-(1H-Benzo[d]imidazol-2-yl)-2-(4-methoxyphenyl)ethyl)-3-((5-cyclopropylisoxazol-3-yl)methyl)urea], the concentration for a half-maximal effect (EC50) amounted to 1.09 µM. Under `O=C(NC(Cc1ccc(C(F)(F)F)cc1F)c1nc2ccccc2[nH]1)N[C@H]1CC[C@H](O)CC1` (single isomer, unassigned; ent-1) [Example 399, 1-(1-(1H-Benzo[d]imidazol-2-yl)-2-(2-fluoro-4-(trifluoromethyl)phenyl)ethyl)-3-(trans-4-hydroxycyclohexyl)urea (ent-1)] stands 1.7 µM; under `COc1c(F)cc(CC(NC(=O)N[C@H]2CC[C@H](O)CC2)c2nc3ccccc3[nH]2)cc1F` (relative stereo) [Example 241, 1-(1-(1H-Benzo[d]imidazol-2-yl)-2-(3,5-difluoro-4-methoxyphenyl)ethyl)-3-(trans-4-hydroxycyclohexyl)urea], 0.138 µM. Consider `COc1cc(F)c(CC(NC(=O)N[C@H]2CC[C@](C)(O)CC2)c2nc3ccccc3[nH]2)cc1F` (mixture of isomers) [Example 250, 1-(1-(1H-Benzo[d]imidazol-2-yl)-2-(2,5-difluoro-4-methoxyphenyl)ethyl)-3-(trans-4-hydroxy-4-methylcyclohexyl)urea], for which the EC50 came out at 0.0072 µM. Turning to `COc1ccc(C[C@@H](NC(=O)N[C@H](C)c2ccc(Cl)cc2)c2nc3ccccc3[nH]2)cc1` [Example 329, 1-((R)-1-(1H-Benzo[d]imidazol-2-yl)-2-(4-methoxyphenyl)ethyl)-3-((R)-1-(4-chlorophenyl)ethyl)urea], the EC50 came out at 0.285 µM.

In the case of `COc1ccc(C[C@@H](NC(=O)NC2CCN(Cc3ccccc3)CC2)c2nc3ccccc3[nH]2)cc1` [Example 88, (R)-1-(1-(1H-Benzo[d]imidazol-2-yl)-2-(4-methoxyphenyl)ethyl)-3-(1-benzylpiperidin-4-yl)urea], the concentration giving a half-maximal response (EC50) came out at 0.101 µM.

As for `COc1ccc(C[C@@H](NC(=O)NCCC2CCN(C(=O)OC(C)(C)C)CC2)c2nc3ccccc3[nH]2)cc1` [Example 155, (R)-tert-Butyl 4-(2-(3-(1-(1H-benzo[d]imidazol-2-yl)-2-(4-methoxyphenyl)ethyl)ureido)ethyl)piperidine-1-carboxylate], the EC50 came to 0.489 µM.

As for `COc1ccc(C[C@@H](NC(=O)Nc2cccnc2)c2nc3ccccc3[nH]2)cc1` [Example 315, (R)-1-(1-(1H-Benzo[d]imidazol-2-yl)-2-(4-methoxyphenyl)ethyl)-3-(pyridin-3-yl)urea], the concentration for a half-maximal effect (EC50) was found to be 0.299 µM. Next, `COc1ccc(CC(C)(NC(=O)N[C@H]2CC[C@H](O)CC2)c2nc3ccccc3[nH]2)cc1` (relative stereo) [Example 1, 1-(2-(1H-Benzo[d]imidazol-2-yl)-1-(4-methoxyphenyl)propan-2-yl)-3-(trans-4-hydroxycyclohexyl)urea]: 0.152 µM; `COc1ccc(C[C@@H](NC(=O)NCc2ccncc2)c2nc3ccccc3[nH]2)cc1` [Example 288, (R)-1-(1-(1H-Benzo[d]imidazol-2-yl)-2-(4-methoxyphenyl)ethyl)-3-(pyridin-4-ylmethyl)urea]: 0.853 µM. In the case of `COc1ccc(CC(NC(=O)NCCc2cccc(OC)c2)c2nc3ccccc3[nH]2)cc1` (stereo not drawn) [Example 47, 1-(1-(1H-Benzo[d]imidazol-2-yl)-2-(4-methoxyphenyl)ethyl)-3-(3-methoxyphenethyl)urea], the EC50 is 0.137 µM. As to `COc1ccc(CC(NC(=O)N[C@H]2CC[C@H](O)CC2)c2nc3ncncc3[nH]2)cc1` (relative stereo) [Example 426, 1-(trans-4-hydroxycyclohexyl)-3-(2-(4-methoxyphenyl)-1-(7H-purin-8-yl)ethyl)urea], the EC50 amounted to 0.374 µM.

In the case of `O=C(NC(Cc1ccc(Br)c(F)c1)c1nc2ccccc2[nH]1)NC12CCC(O)(CC1)CC2` (single isomer, unassigned; ent-1) [Example 258, 1-(1-(1H-Benzo[d]imidazol-2-yl)-2-(4-bromo-3-fluorophenyl)ethyl)-3-(4-hydroxybicyclo[2.2.2]octan-1-yl)urea (ent-1)], the EC50 was 0.04 µM. For `COc1ccc(C[C@@H](NC(=O)NCCC2CCN(C(C)=O)CC2)c2nc3ccccc3[nH]2)cc1` [Example 159, (R)-1-(1-(1H-Benzo[d]imidazol-2-yl)-2-(4-methoxyphenyl)ethyl)-3-(2-(1-acetylpiperidin-4-yl)ethyl)urea], the EC50 stood at 0.876 µM. `COC(=O)N1CCC(NC(=O)N[C@H](Cc2ccc(OC)cc2)c2nc3ccccc3[nH]2)C1` (stereo partly drawn) [Example 158, Methyl 3-(3-((R)-1-(1H-benzo[d]imidazol-2-yl)-2-(4-methoxyphenyl)ethyl)ureido)pyrrolidine-1-carboxylate]: the EC50 amounted to 0.158 µM. `COc1ccc(C[C@@H](NC(=O)Nc2ccon2)c2nc3ccccc3[nH]2)cc1` [Example 379, (R)-1-(1-(1H-Benzo[d]imidazol-2-yl)-2-(4-methoxyphenyl)ethyl)-3-(isoxazol-3-yl)urea hydrochloride]: the EC50 came to 1.09 µM.

Usually EC50 stands for the concentration giving half of the maximal effect.
